This note sets out measurements from PubChem BioAssay AID256 (DTP/NCI, 2004).

Several values for one entry are separate records, joined by “and”; a condition that tells them apart may be missing. Equal values may be shown once. Toxic doses and inconclusive results are not listed.

For this assay, the system named is CD2F1 mice, L1210 leukemia ip, survival T/C. Put plainly: NCI In Vivo Anticancer Drug Screen. Data for tumor model L1210 Leukemia (intraperitoneal) in CD2F1 (CDF1) mice. The settings on record: higher = longer survival. The gist of the method:
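Vehicle-treated tumor-bearing mice served as controls (C) for compound-treated mice (T). Reported figure is T divided by C.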

The mark [1] stands for this setting: endpoint: mean survival time, dose: 25.0 mg/kg/injection, schedule: Q04DX003 (ip), vehicle: saline.
Setting [2] is: endpoint: mean survival time, dose: 100.0 mg/kg/injection, schedule: Q04DX003 (ip), vehicle: saline with Tween-80.
Where [3] appears, read: endpoint: mean survival time, dose: 200.0 mg/kg/injection, schedule: Q04DX003 (ip), vehicle: saline with Tween-80.
Where [4] appears, read: endpoint: mean survival time, dose: 400.0 mg/kg/injection, schedule: Q04DX003 (ip), vehicle: saline with Tween-80.
Where [5] appears, read: endpoint: mean survival time, dose: 100.0 mg/kg/injection, schedule: Q01DX009 (ip), vehicle: saline with Tween-80.
Setting [6] is: endpoint: mean survival time, dose: 200.0 mg/kg/injection, schedule: Q01DX009 (ip), vehicle: saline with Tween-80.
Where [7] appears, read: endpoint: mean survival time, dose: 400.0 mg/kg/injection, schedule: Q01DX009 (ip), vehicle: saline with Tween-80.
Where [8] appears, read: endpoint: mean survival time, dose: 100.0 mg/kg/injection, schedule: Q04DX002 (ip), vehicle: saline with Tween-80.
Setting [9] is: endpoint: mean survival time, dose: 200.0 mg/kg/injection, schedule: Q04DX002 (ip), vehicle: saline with Tween-80.

`O=c1nc(N2CCCCC2)ccn1C1OC(CO)C(O)C1O` (centres undefined): the T/C by setting is: (endpoint: median survival time, dose: 12.5 mg/kg/injection, schedule: Q01DX005 (ip), vehicle: water) 98 % of control; (endpoint: median survival time, dose: 25.0 mg/kg/injection, schedule: Q01DX005 (ip), vehicle: water) 106 % of control; (endpoint: median survival time, dose: 50.0 mg/kg/injection, schedule: Q01DX005 (ip), vehicle: water) 106 % of control; (endpoint: median survival time, dose: 100.0 mg/kg/injection, schedule: Q01DX005 (ip), vehicle: water) 112 % of control; (endpoint: median survival time, dose: 200.0 mg/kg/injection, schedule: Q01DX005 (ip), vehicle: water) 104 % of control.
Regarding `CN(C)CCCn1c2ccccc2c2cnccc21`, the T/C was 98 % of control under setting [1]; 110 % of control (endpoint: mean survival time, dose: 50.0 mg/kg/injection, schedule: Q04DX003 (ip), vehicle: saline); 113 % of control (endpoint: mean survival time, dose: 100.0 mg/kg/injection, schedule: Q04DX003 (ip), vehicle: saline).
On to `CCCCCCCCn1nnnc1N`, for which the T/C was 112 % of control (endpoint: mean survival time, dose: 12.5 mg/kg/injection, schedule: Q01DX001 (ip), vehicle: Klucel (hydroxypropylcellulose) (HPC)); 97 % of control (endpoint: mean survival time, dose: 25.0 mg/kg/injection, schedule: Q01DX001 (ip), vehicle: Klucel (hydroxypropylcellulose) (HPC)); 104 % of control (endpoint: mean survival time, dose: 50.0 mg/kg/injection, schedule: Q01DX001 (ip), vehicle: Klucel (hydroxypropylcellulose) (HPC)).
Regarding `CCOC(=O)c1cnc2c(cnn2CC)c1N1CCCCC1`, the T/C by setting is: (endpoint: mean survival time, dose: 100.0 mg/kg/injection, schedule: Q04DX003 (ip), vehicle: Klucel (hydroxypropylcellulose) (HPC)) 89 % of control; (endpoint: mean survival time, dose: 200.0 mg/kg/injection, schedule: Q04DX003 (ip), vehicle: Klucel (hydroxypropylcellulose) (HPC)) 97 % of control.
In the case of `CC([NH-])C([NH-])O.O=[N+]([O-])O.O=[N+]([O-])O.[Pt+2]` (centres undefined), the T/C reads like this: (endpoint: mean survival time, dose: 12.5 mg/kg/injection, schedule: Q04DX003 (ip), vehicle: saline) 170 % of control; under setting [1], 158 % of control.
For the compound `Cn1c2ccccc2c(=O)c2ccc(Cl)cc21`, the T/C is 95 % of control under setting [2], 96 % of control under setting [3] and 96 % of control under setting [4].
Turning to `CNC(=O)C(=O)NC`, the T/C is 96 % of control under setting [5]; 101 % of control under setting [2]; 98 % of control under setting [6]; 98 % of control under setting [3]; 98 % of control under setting [7]; 101 % of control under setting [4].
In the case of `CC1=C(C)C2(C)C1(C)C1(C)C(C)=C(C)C21C` (centres undefined), the T/C was 96 % of control under setting [2], 93 % of control under setting [3] and 89 % of control under setting [4].
In the case of `CCc1ccc(O[Si](C)(C)C)cc1`, the T/C by setting is: under setting [2], 97 % of control; under setting [3], 99 % of control.
In the case of `O=C(C=C(C(F)(F)Cl)C(F)(F)Cl)c1cccs1`, the T/C is 98 % of control (endpoint: mean survival time, dose: 5.0 mg/kg/injection, schedule: Q04DX003 (ip), vehicle: saline); 104 % of control (endpoint: mean survival time, dose: 10.0 mg/kg/injection, schedule: Q04DX003 (ip), vehicle: saline); 103 % of control (endpoint: mean survival time, dose: 20.0 mg/kg/injection, schedule: Q04DX003 (ip), vehicle: saline).
Consider `O=c1n(-c2ccccc2)c(=O)n(-c2ccccc2)c(=O)n1-c1ccccc1`, for which the T/C is 93 % of control (endpoint: mean survival time, dose: 100.0 mg/kg/injection, schedule: Q01DX001 (ip), vehicle: Klucel (hydroxypropylcellulose) (HPC)); 90 % of control (endpoint: mean survival time, dose: 200.0 mg/kg/injection, schedule: Q01DX001 (ip), vehicle: Klucel (hydroxypropylcellulose) (HPC)); 101 % of control (endpoint: mean survival time, dose: 400.0 mg/kg/injection, schedule: Q01DX001 (ip), vehicle: Klucel (hydroxypropylcellulose) (HPC)).
As to `CSCS(=O)C[C@H](CO)NC(=O)/C=C/c1c(C)[nH]c(=O)[nH]c1=O` (some centres undefined), the T/C is, setting by setting: (endpoint: mean survival time, dose: 0.03 mg/kg/injection, schedule: Q01DX009 (ip), vehicle: saline) 104 % of control; (endpoint: mean survival time, dose: 0.06 mg/kg/injection, schedule: Q01DX009 (ip), vehicle: saline) 103 % of control; (endpoint: mean survival time, dose: 0.08 mg/kg/injection, schedule: Q01DX009 (ip), vehicle: water) 105 % of control and 110 % of control; (endpoint: mean survival time, dose: 0.13 mg/kg/injection, schedule: Q01DX009 (ip), vehicle: saline) 101 % of control; (endpoint: mean survival time, dose: 0.13 mg/kg/injection, schedule: Q01DX010 (ip), vehicle: saline) 102 % of control and 111 % of control; (endpoint: mean survival time, dose: 0.15 mg/kg/injection, schedule: Q01DX009 (ip), vehicle: water) 115 % of control and 110 % of control. In addition, the T/C (endpoint: mean survival time, dose: 0.25 mg/kg/injection, schedule: Q01DX009 (ip), vehicle: saline) is 115 % of control; the T/C (endpoint: mean survival time, dose: 0.25 mg/kg/injection, schedule: Q01DX010 (ip), vehicle: saline) is 113 % of control and 114 % of control; the T/C (endpoint: mean survival time, dose: 0.3 mg/kg/injection, schedule: Q01DX009 (ip), vehicle: water) was 116 % of control; the T/C (endpoint: mean survival time, dose: 0.5 mg/kg/injection, schedule: Q01DX009 (ip), vehicle: saline) was 114 % of control; the T/C (endpoint: mean survival time, dose: 0.5 mg/kg/injection, schedule: Q01DX010 (ip), vehicle: saline) is 119 % of control and 112 % of control; the T/C (endpoint: mean survival time, dose: 0.6 mg/kg/injection, schedule: Q01DX009 (ip), vehicle: water) was 101 % of control. Where the note is “endpoint: mean survival time, dose: 1.0 mg/kg/injection, schedule: Q01DX010 (ip), vehicle: saline”, the T/C was 108 % of control.
On to `N=c1ncn(C2OC(COP(=O)(O)O)C(O)C2O)c2nc[nH]c12` (centres undefined), for which the T/C runs as follows: (endpoint: mean survival time, dose: 0.78 mg/kg/injection, schedule: Q01DX005 (ip), vehicle: water) 102 % of control; (endpoint: mean survival time, dose: 1.56 mg/kg/injection, schedule: Q01DX005 (ip), vehicle: water) 110 % of control; (endpoint: mean survival time, dose: 3.13 mg/kg/injection, schedule: Q01DX005 (ip), vehicle: water) 105 % of control; (endpoint: mean survival time, dose: 6.25 mg/kg/injection, schedule: Q01DX005 (ip), vehicle: water) 111 % of control; (endpoint: mean survival time, dose: 11.3 mg/kg/injection, schedule: Q01DX005 (ip), vehicle: water) 98 % of control; (endpoint: mean survival time, dose: 12.5 mg/kg/injection, schedule: Q01DX005 (ip), vehicle: water) 102 % of control. Moreover, the T/C is 98 % of control (endpoint: mean survival time, dose: 22.5 mg/kg/injection, schedule: Q01DX005 (ip), vehicle: water) and 102 % of control (endpoint: mean survival time, dose: 45.0 mg/kg/injection, schedule: Q01DX005 (ip), vehicle: water).
Regarding `CN1CCC(O)(c2ccccc2C2=NC(C)(C)CO2)CC1`, the T/C (endpoint: mean survival time, dose: 50.0 mg/kg/injection, schedule: Q04DX002 (ip), vehicle: saline with Tween-80) was 96 % of control; the T/C (endpoint: mean survival time, dose: 100.0 mg/kg/injection, schedule: Q01DX001 (ip), vehicle: saline with Tween-80) was 103 % of control; the T/C under setting [8] was 101 % of control; the T/C (endpoint: mean survival time, dose: 200.0 mg/kg/injection, schedule: Q01DX001 (ip), vehicle: saline with Tween-80) is 102 % of control; the T/C under setting [9] is 108 % of control.
`N/C(=C\C(=O)c1ccccc1)c1ccccc1`: the T/C is 94 % of control under setting [2], 107 % of control under setting [3] and 100 % of control under setting [4].
The corresponding values for `O=C(COc1ccccc1)Nc1ccc([N+](=O)[O-])cc1` are 100 % of control, 99 % of control and 100 % of control.
Turning to `NC(=S)N/N=C/c1ccccc1O`, the T/C by setting is: under setting [5], 102 % of control; under setting [6], 91 % of control; under setting [7], 88 % of control.
With `CC1CCC2(OC1)OC1CC3C4CCC5(C)CC(=O)CCC5(C)C4CCC3(C)C1C2C` (centres undefined), the T/C was 90 % of control under setting [8] and 86 % of control under setting [9].
As to `O=C1C(Cl)=C(NCC2CCC(CO)CC2)C(=O)c2ccccc21` (centres undefined), the T/C is 98 % of control (endpoint: mean survival time, dose: 6.25 mg/kg/injection, schedule: Q04DX003 (ip), vehicle: saline with Tween-80); 97 % of control (endpoint: mean survival time, dose: 12.5 mg/kg/injection, schedule: Q04DX003 (ip), vehicle: saline with Tween-80); 95 % of control and 98 % of control (endpoint: mean survival time, dose: 25.0 mg/kg/injection, schedule: Q04DX003 (ip), vehicle: saline with Tween-80).
Consider `Cc1cc(C)c(C(=O)c2no[n+]([O-])c2C(=O)c2c(C)cc(C)c(Br)c2C)c(C)c1Br`, for which the T/C is 97 % of control under setting [5], 97 % of control under setting [6] and 98 % of control under setting [7].
For `BrCC[n+]1ccc(-c2cc[n+](CCBr)cc2)cc1`, the T/C is 110 % of control (endpoint: mean survival time, dose: 10.0 mg/kg/injection, schedule: Q01DX001 (ip), vehicle: Klucel (hydroxypropylcellulose) (HPC)); 93 % of control (endpoint: mean survival time, dose: 20.0 mg/kg/injection, schedule: Q01DX001 (ip), vehicle: Klucel (hydroxypropylcellulose) (HPC)); 98 % of control (endpoint: mean survival time, dose: 40.0 mg/kg/injection, schedule: Q01DX001 (ip), vehicle: Klucel (hydroxypropylcellulose) (HPC)).
Take `COc1ccc(COC(=O)Nc2ccc(Cl)cc2)cc1OC`: the T/C is 96 % of control under setting [8]; 100 % of control under setting [9]; 112 % of control (endpoint: mean survival time, dose: 400.0 mg/kg/injection, schedule: Q04DX002 (ip), vehicle: saline with Tween-80).
